These results are taken from patent US8940730B2, “Methods and compositions of treating a Flaviviridae family viral infection” (The Board of Trustees of the Leland Stanford Junior …, priority 2007, dated 2015).

Molecules are shown by their SMILES. Bounds are passed on as bounds.

Data set [1] deals with Huh7.5 cells. Particulars: human, 3 days. The protocol: (§1) 1) Wash cells once with PBS, trypsinize. […] Mix twice by pipeting. […] Make a common stock from all tubes. […] 15) Incubate for 24 hr before treatment.
(§2) 3) Repeat daily for 2 more days.
1) Alamar blue assay—a) Include medium for background subtraction (and also for seeing change in color easily). b) Aspirate medium. c) Make a stock of medium plus 10% Alamar blue. Total volume per well is 100 μl. d) Incubate for 2-2.5 hrs at 37° C. (or until there is a color change). c) Read plates at flex station.

The target of data set [2] is T1, hERG channel (Homo sapiens, UniProt Q12809).
T1 construct: host or cells: CHO (Chinese Hamster Ovary), stably transfected
In words: HERG channel assay (whole cell patch clamp, CHO cells). The data set is classed as cell-based. Particulars: CHO cells expressing hERG, tail current. How it is done: Solutions: For electrophysiological recordings, the following solutions were used. External Solution: 2 mM CaCl2; 2 mM MgCl2; 4 mM KCl; 150 mM NaCl; 10 mM Glucose; 10 mM HEPES; 310-320 mOsm; pH 7.4 (adjusted with 1M NaOH). Internal Solution: 140 mM KCl; 10 mM MgCl2; 6 mM EGTA; 5 mM HEPESNa; […]; 300-320 mOsm; pH 7.25 (adjusted with 1M KOH).
Next, 1 μM cisapride (positive control) was added.
Data Analysis: Data analysis was performed using DataXpress (Axon Instruments), Clampfit (Axon Instruments) and Origin (Originlab Corporation) software.
In addition, activity against hERG potassium channel was tested on representative compounds. […] Compounds having a structure similar to that of EBP288 (compounds that contain, in R3, an N-attached heterocycle where substitutions adjacent to the nitrogen are small) should have a similar activity in this assay. […] Compounds having a structure similar to the aforementioned compound (compounds that contain, in R3, a C-attached heterocycle where heteroatom is acylated N) should have a similar activity in this assay. Generally, compounds that show no or only low activity in the hERG assay are preferred.
(In general: The patch-clamp technique gives a direct electrical read-out from membranes.)

Data set [3] concerns HCV 1b RNA replicon. Briefly: Luciferase assay for HCV genotype 1b replicon reporter cell lines. Particulars: Hepatitis C virus, Huh-7, 48 h, read-out: 1b EC50, 1b replicon, Huh7, 48 hours, top concentration 25 μM. On the technique in general: A replicon is a self-replicating genome or part of one, used to study replication in cells.
The subject of data set [4] is Huh7 cell line. In words: MTT assay for HCV replicon reporter cell lines (cell toxicity). The class given is cell-based. Particulars: Homo sapiens, Huh-7; cell toxicity, MTT, top concentration 25 μM; read-out: Cell Viability EC50. A general note: Tetrazolium dyes change colour on reduction, which living cells bring about.
The test system of data set [5] is HCV genotype 2a infectious clone. In words: HCV genotype 2a infectious clone assay (Renilla luciferase). The data set is classed as cell-based. Particulars: Hepatitis C virus, read-out: 2a (% activity @ 5 μM), 5 μM; % replication activity of control with no test compound. How it is done: The assays in parts A and B were used to generate the genotype 1b inhibitory activity and related cell toxicity (viability) data supported herein. This assay has been used to generate the genotype 2a inhibitory activity data supported herein.
as §1, §2

T1 sequence (Q12809 whole entry): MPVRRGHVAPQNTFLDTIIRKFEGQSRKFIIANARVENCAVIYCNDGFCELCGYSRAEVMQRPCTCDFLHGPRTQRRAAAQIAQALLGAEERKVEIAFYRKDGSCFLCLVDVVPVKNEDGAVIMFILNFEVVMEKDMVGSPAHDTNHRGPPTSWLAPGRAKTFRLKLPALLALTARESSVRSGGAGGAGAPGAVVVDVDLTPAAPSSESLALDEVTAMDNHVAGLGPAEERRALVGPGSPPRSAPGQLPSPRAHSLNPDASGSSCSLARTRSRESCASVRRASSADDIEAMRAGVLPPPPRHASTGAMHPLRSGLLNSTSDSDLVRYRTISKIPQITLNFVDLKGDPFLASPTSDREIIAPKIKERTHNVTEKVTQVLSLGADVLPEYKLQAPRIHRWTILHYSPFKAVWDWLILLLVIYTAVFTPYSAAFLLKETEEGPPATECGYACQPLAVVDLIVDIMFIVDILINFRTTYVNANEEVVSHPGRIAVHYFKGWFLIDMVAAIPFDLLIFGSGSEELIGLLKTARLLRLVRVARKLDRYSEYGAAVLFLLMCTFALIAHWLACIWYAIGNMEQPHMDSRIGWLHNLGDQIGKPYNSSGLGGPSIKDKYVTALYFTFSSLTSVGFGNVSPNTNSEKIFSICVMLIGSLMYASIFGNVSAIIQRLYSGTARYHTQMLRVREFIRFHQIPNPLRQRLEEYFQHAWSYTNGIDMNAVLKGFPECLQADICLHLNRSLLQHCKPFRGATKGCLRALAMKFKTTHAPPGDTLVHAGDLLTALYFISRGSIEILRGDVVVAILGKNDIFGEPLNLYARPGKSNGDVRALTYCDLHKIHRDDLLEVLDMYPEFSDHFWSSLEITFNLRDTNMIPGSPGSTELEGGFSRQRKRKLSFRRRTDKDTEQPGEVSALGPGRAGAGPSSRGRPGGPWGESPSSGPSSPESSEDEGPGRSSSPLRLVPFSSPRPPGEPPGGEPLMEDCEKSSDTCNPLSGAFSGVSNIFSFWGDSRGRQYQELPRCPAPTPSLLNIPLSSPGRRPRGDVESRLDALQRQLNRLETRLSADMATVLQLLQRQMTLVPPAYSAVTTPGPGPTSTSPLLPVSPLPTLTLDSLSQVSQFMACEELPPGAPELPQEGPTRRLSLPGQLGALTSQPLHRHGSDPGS

Broadly, the IC50 is the point on the concentration scale where inhibition reaches its midpoint. A low value points to greater potency in that assay. With `OC[C@@H]1CCCN1CCCOc1nn(Cc2ccc(Cl)cc2)c2ccccc12` [EBP383], the “2a cell viability (@ 5 μM)” value in data set [1] is 100%. Besides, the IC50 in data set [2] was found to be 0.9 µM. The results for the EC50 in data set [3] and in data set [4] were 4.2 µM and over 25 µM, respectively. Also, the activity at 5 µM in data set [5] was 35%.
For `OC[C@H]1CCCN1CCCOc1nn(Cc2ccc(Cl)cc2)c2ccccc12` [EBP516], in data set [2], the IC50 was found to be 0.81 µM. For the same molecule, the EC50 in data set [3] is 4.7 µM; in data set [4], over 25 µM.
`O[C@@H]1CCN(CCCOc2nn(Cc3ccc(Cl)cc3)c3ccccc23)C1` [EBP393]: in data set [1], the “2a cell viability (@ 5 μM)” value is on record as 100%. In data set [2], the IC50 worked out at 0.9 µM. In addition, the values for the EC50 in data set [3] and in data set [4] were 4.5 µM and over 25 µM, respectively. Further, the activity at 5 µM in data set [5] was 42%.
`O[C@H]1CC[C@H](O)N1CCCOc1nn(Cc2ccc(Cl)cc2)c2ccccc12` [EBP515] registered an IC50 in data set [2] of 2.6 µM. In addition, the EC50 is 4.9 µM in data set [3] and over 25 µM in data set [4].
Regarding `Clc1ccc(Cn2nc(OCCCN3CCC[C@H]3CN3CCCC3)c3ccccc32)cc1` [EBP395], in data set [1], the “2a cell viability (@ 5 μM)” value stood at 89%. The molecule also showed an IC50 in data set [2] of 2 µM. Also, the results for the EC50 in data set [3] and in data set [4] were 4.4 µM and over 25 µM, respectively. In data set [5], the activity at 5 µM came to 41%.
`Clc1ccc(Cn2nc(OCC3CCNCC3)c3cc(Cl)ccc32)cc1` [EBP640] yielded an IC50 in data set [2] of 5.3 µM. Moreover, the EC50 was 5 µM in data set [3] and over 25 µM in data set [4].
The like results for `CCN(CC)c1ccc2c(c1)c(OCCCN1CCCC1)nn2Cc1ccc(Cl)cc1` [EBP534] were, in that order, 2.8 µM, 3.3 µM and over 25 µM.
In the case of `Clc1ccc(Cn2nc(OCCCN3CCCC3c3ccccc3)c3ccccc32)cc1` (centres unmarked) [EBP387], the “2a cell viability (@ 5 μM)” value in data set [1] is 100%. In addition, the IC50 in data set [2] turned out to be 3.3 µM. The EC50 in data set [3] was 6.4 µM; in data set [4], over 25 µM. In data set [5], the activity at 5 µM is 35%.
The like results for `Clc1ccc(Cn2nc(OCCCN3CCCC3)c3ccccc32)cc1` [EBP288] were, in that order, 89%, 1 µM, 3.7 µM, over 25 µM and 24%.
Take `Clc1ccc(Cn2nc(OCCCN3CCCCCC3)c3ccccc32)cc1` [EBP397]: in data set [1], the “2a cell viability (@ 5 μM)” value is recorded as 100%. Further, the EC50 was 2.8 µM in data set [3] and over 25 µM in data set [4]. For the same molecule, the activity at 5 µM in data set [5] stood at 14%.
`Clc1ccc(Cn2nc(OCCCN3CCC[C@H]3CNc3ccccc3)c3ccccc32)cc1` [EBP524] showed an IC50 in data set [2] of 2.6 µM. In addition, the EC50 in data set [3] is 8.3 µM; in data set [4] it was over 25 µM.
As for `C[C@H]1CCCN1CCCOc1nn(Cc2ccc(Cl)cc2)c2ccccc12` [EBP391], the “2a cell viability (@ 5 μM)” value in data set [1] is given as 100%. Half-maximal inhibition in data set [2] (IC50) was put at 0.23 µM. Also, the EC50 in data set [3] was 4 µM; in data set [4], over 25 µM. For the same molecule, in data set [5], the activity at 5 µM worked out at 35%.
Consider `CC(C)c1ccc(Cn2nc(OCCN3CCCC3)c3ccccc32)cc1` [EBP336], for which the “2a cell viability (@ 5 μM)” value in data set [1] is 95%. Besides, the EC50 in data set [3] is 5.1 µM; in data set [4] it was over 25 µM. Also, in data set [5], the activity at 5 µM came to 38%.
